Data from patent US10662445B2, “Process for the production of bio-butanol by fermentation of glycosidic waste matter” (priority 2018, dated 2020).

What was measured:
[1] = Organic-solvent extraction of microbial inhibitors from an agro-waste hydrolysate mimic; format: physicochemical; conditions: for Inhibitor extraction, phase separation by centrifugal force / Inhibitor extraction, phase separation by separating funnel: solvent bis-(2-ethylhexyl) sebacate; for Ferulic acid removal / Furfural removal / HMF removal / Syringaldehyde removal / TRS removal / Vanillic acid removal / Vanillin removal / TRS (total reducing sugar) after extraction: Vaqueous:Vorganic = 2:1; for TRS (total reducing sugar) after extraction: standard 52.00 g/L
From the text: Media composition was designed according to the inhibitory compound limit concentration reported in the literature for bio-butanol producing solventogenic Clostridia (Baral et al. Microbial inhibitors: formation and effects on acetone-butanol-ethanol fermentation of lignocellulosic biomass. Applied microbiology and biotechnology, Vol. 98(22), 2014: 9151-9172; Qureshi et al. Production of butanol (a biofuel) from agricultural residues: Part I—Use of barley straw hydrolysate. Biomass and bioenergy, Vol. 34(4), 2010: 559-565). Different volume ratio of the hydrolysate mimic and organic solvents, such as (5:1), (3:1), (2:1), (1:1) and (1:2) (vaqueous:vorganic) were tried in order to minimize extractant expenditure. Organic and aqueous phase mixing was carried out by a propeller impeller. Rotation rate (100, 200, 250, 300 and 400 rpm) and operation-time (15, 30, 45, 60 and 90 min) were tested at room temperature (25° C.). A comparative study between settling through separating funnel vs. centrifugal force assisted separation was also made to guarantee an optimal recovery of the broth phase.
A complex mixture of several reduced sugar compounds (e.g. as glucose, fructose, and xylose) and microbial inhibitors (furfural, HMF, acetic acid, levulinic acid, vanillin, vanillic acid, feluric acid and syringaldehyde) were produced during the pretreatment step (hydrolysis). In order to analyse these compounds, liquid samples were collected and analyzed using liquid chromatography-mass spectrometry (LC-MS) and liquid chromatography-tandem mass spectrometry (LC/MS-MS) equipped with a ZORBAX Carbohydrate column (5 μm, 150×4.6 mm ID column) (Agilent Technologies, USA) with D6 glucose as the internal standard and a Biobasic-18 column (5 μm, 250×4.6 mm ID) (Agilent Technologies, USA) with phenylethanol-D5 as the internal standard. […] Methanol water (8:2) and acetonitrile water (8.5:1.5) were used to dilute the sample before inhibitor and carbohydrate analysis. […]

[2] = system: solventogenic Clostridia (ABE fermentation); conditions: cited from earlier work; for Inhibitory concentration: ABE fermentation
[3] = system: Clostridium acetobutylicum NRRL B-582 (ATCC-824) (CA); assay: Bio-compatibility (solvent toxicity) batch ABE fermentation, CA; conditions: for ABE / Butanol: CA
Protocol: (§1) Clostridium acetobutylicum NRRL B-582 (ATCC-824) (CA) and Clostridium beijerinckii NRRL B-466(CB) were considered for current investigation to produce bio-butanol from different brewery industry wastes. They were kindly provided by Agricultural Research Station, USDA (USA). The microorganisms were grown and maintained in peptone-yeast extract-glucose (PYG) media under anaerobic condition (vegetative growth) at 37±1° C. and 150 rpm for 24 h and 17 h, respectively, before being transferred into the fermentation medium. The medium (g L^−1) comprised: glucose (10); yeast extract (10); peptone (5); tryptone (5); cysteine-HCl (0.5); K2HPO4 (2.04); KH2PO4 (0.04); FeSO4*7H2O (1.1×10^−3); CaCl2 (8×10^−3); MgSO4*7H2O (0.0192); NaCl (0.08); and NaHCO3 (0.4). 125 mL serum bottles (working volume 50 mL) were used for both butanol production and inoculum development (Maiti et al., January 2016, Maiti et al., August 2015). Anaerobic conditions were maintained within the bottle by sparging N2 for 10 minutes and immediately sealed by an aluminum crimp seal containing silicone septum (Fisher scientific, Canada) by means of a hand operated crimper (E-Z Crimper™, VWR, Ontario, Canada). Prior to culture development, the medium was sterilized for 20 min at 121±1° C. About 10% (v/v) (dry cell weight […]) of microbial culture in its exponential phase of growth (OD600nm=1.3-1.5) was used as inoculum for all the experiments conducted in this investigation.
(§2) Set-1, set-4 and set-5 were included as control-1, control-2 and control-3 respectively. All the experiments were carried out in P2 nutrient media as described later in batch fermentation section.
(§3) Batch fermentation was performed in 125 mL serum vials (working volume of 50 mL) at pH 6.7±0.1. The P2 medium was sterilized at 121±1° C. for 20 min. Prior to fermentation, anaerobic conditions for each bottle were maintained by sparging the medium with N2 for 10 minutes and immediately closing with an aluminum crimp seal containing silicon septum (Fisher scientific, Canada) by means of a hand-operated crimper (E-Z Crimper™, VWR, Ontario, Canada). A modified P2 medium, with the following composition, was used for fermentation experiments: Buffer→KH2PO450 g/L, K2HPO450 g/L, ammonium acetate 220 g/L; Minerals→MgSO4*7H2O 20 g/L, MnSO4*H2O 1 g/L, FeSO4*7H2O 1 g/L, NaCl 1 g/L; Vitamins→thiamin 0.1 g/L, biotin 0.001 g/L). Since brewery industry wastes were already enriched with yeast protein, no additional yeast protein nor peptone were supplemented.
(§4) The fermentation was initiated by inoculating the P2 medium with the seed cultures at a ratio of 10% (v:v). […] Fermentation experiments were performed at 37±1° C. with shaking at 150 rpm for 72 h in duplicates. 1 mL of culture broth from each batch assay was used for metabolite analysis. Data described here present average values from duplicate runs for duplicate samples.
(§5) To determine the different metabolites produced during ABE fermentation (i.e. butanol, ethanol, acetone, butyric acid, and acetic acid) liquid samples from each fermentation broth were collected and analyzed using gas chromatography (GC) (GC7890B, Agilent Technologies, USA) equipped with a FID detector and a HP-INNOWax™ column (30 m, 0.25 mm ID, 0.25 μm df). Isobutanol was used as the internal standard. Before injecting the sample (1 mL) in the GC for products analysis, the sample was centrifuged for 5 minutes at 7650×g and the supernatant was filtered by 0.45 μm syringe filter. The GC conditions comprised: helium carrier gas at a flow rate of 1 mL/min with a temperature ramp from the initial temperature of 50° C. to 150° C.

[4] = system: Clostridium beijerinckii NRRL B-466 (CB); assay: Bio-compatibility (solvent toxicity) batch ABE fermentation, CB
Protocol: as §1, §2, §3, §4, §5

[5] = homogenizer rotational speed 100 rpm
[6] = homogenizer rotational speed 200 rpm
[7] = homogenizer rotational speed 250 rpm
[8] = homogenizer rotational speed 300 rpm
[9] = homogenizer rotational speed 400 rpm
[10] = Extraction 1, hydrolysate mimic
[11] = Extraction 2, hydrolysate mimic
[12] = Extraction 3, hydrolysate mimic
[13] = Extraction 4, hydrolysate mimic
[14] = first stage, ratio 2:1, hydrolysate mimic
[15] = simulated synthetic media as well as waste hydrolysate, ex-situ detoxification
[16] = Control-2 (glucose + BIS) + extraction (2:1 mimic:organic solvent) before fermentation
[17] = Set-7 (10 times diluted BIS) + extraction (2:1)
[18] = Set-8 (50 times diluted BIS) + extraction (2:1)

Structure (SMILES): COc1cc(/C=C/C(=O)O)ccc1O [Ferulic acid, ferulic acid]
- Inhibitor extraction, phase separation by centrifugal force [1, 5]: 97%
- Inhibitor extraction, phase separation by separating funnel [1, 5]: 94%
- Inhibitor extraction, phase separation by centrifugal force [1, 6]: 96%
- Inhibitor extraction, phase separation by separating funnel [1, 6]: 94%
- Inhibitor extraction, phase separation by centrifugal force [1, 7]: 97%
- Inhibitor extraction, phase separation by separating funnel [1, 7]: 93%
- Inhibitor extraction, phase separation by centrifugal force [1, 8]: 95%
- Inhibitor extraction, phase separation by separating funnel [1, 8]: 94%
- Inhibitor extraction, phase separation by centrifugal force [1, 9]: 97%
- Inhibitor extraction, phase separation by separating funnel [1, 9]: 96%
- Inhibitory concentration [2]: > 0.3 g/L
- Concentration that inhibited butanol production [2]: 1. (>0.3 g/L) inhibited butanol production

Structure (SMILES): COc1cc(C(=O)O)ccc1O [Vanillic acid, vanillic acid]
- Inhibitor extraction, phase separation by centrifugal force [1, 5]: 92%
- Inhibitor extraction, phase separation by separating funnel [1, 5]: 90%
- Inhibitor extraction, phase separation by centrifugal force [1, 6]: 93%
- Inhibitor extraction, phase separation by separating funnel [1, 6]: 91%
- Inhibitor extraction, phase separation by centrifugal force [1, 7]: 94%
- Inhibitor extraction, phase separation by separating funnel [1, 7]: 93%
- Inhibitor extraction, phase separation by centrifugal force [1, 8]: 94%
- Inhibitor extraction, phase separation by separating funnel [1, 8]: 93%
- Inhibitor extraction, phase separation by centrifugal force [1, 9]: 96%
- Inhibitor extraction, phase separation by separating funnel [1, 9]: 93%
- Inhibitory concentration [2]: >1 g/L
- Concentration that stopped bio-butanol production [2]: 1. (>1 g/L) stopped bio-butanol

Structure (SMILES): CCCCC(CC)COC(=O)CCCCCCCCC(=O)OCC(CC)CCCC (stereo not drawn) [bis-(2-ethylhexyl) sebacate]
- Ferulic acid removal [1, 10]: 97%
- Furfural removal [1, 10]: 79%
- HMF removal [1, 10]: 78%
- Syringaldehyde removal [1, 10]: 93%
- TRS removal [1, 10]: 0%
- Vanillic acid removal [1, 10]: 93%
- Vanillin removal [1, 10]: 95%
- TRS (total reducing sugar) after extraction [1, 10]: 52.00 g/L
- Ferulic acid removal [1, 11]: 99%
- Furfural removal [1, 11]: 97%
- HMF removal [1, 11]: 96%
- Syringaldehyde removal [1, 11]: 99%
- TRS removal [1, 11]: 0%
- Vanillic acid removal [1, 11]: 97%
- Vanillin removal [1, 11]: 97%
- TRS (total reducing sugar) after extraction [1, 11]: 52.00 g/L
- Ferulic acid removal [1, 12]: 100%
- Furfural removal [1, 12]: 100%
- HMF removal [1, 12]: 100%
- Syringaldehyde removal [1, 12]: 100%
- TRS removal [1, 12]: 0%
- Vanillic acid removal [1, 12]: 100%
- Vanillin removal [1, 12]: 100%
- TRS (total reducing sugar) after extraction [1, 12]: 52.00 g/L
- Ferulic acid removal [1, 13]: 100%
- Furfural removal [1, 13]: 100%
- HMF removal [1, 13]: 100%
- Syringaldehyde removal [1, 13]: 100%
- TRS removal [1, 13]: 0%
- Vanillic acid removal [1, 13]: 100%
- Vanillin removal [1, 13]: 100%
- TRS (total reducing sugar) after extraction [1, 13]: 52.00 g/L
- Extraction efficiency for phenolic compounds [1, 14]: > 93%
- Extraction efficiency towards furan derivatives [1, 14]: 78-79%
- Removal of the inhibitors from the mimic synthetic media ([1]; set-10 and set-11 (10 and 50 times diluted BIS), extraction 2:1): > 99%
- Extraction of furan derivatives [1, 15]: More than 80%
- Extraction of phenolic compounds [1, 15]: more than 95%
- Extraction of reducing sugar [1, 15]: almost no extraction
- ABE [3, 16]: 13.96 ± 0.3 g/L
- Butanol [3, 16]: 10.25 ± 0.5 g/L
- ABE [3, 17]: 12.5 ± 0.2 g/L
- Butanol [3, 17]: 9.13 ± 0.2 g/L
- ABE [3, 18]: 12.2 ± 0.3 g/L
- Butanol [3, 18]: 9.1 ± 0.3 g/L
- Average increase in bio-butanol production in comparison with control 1/set-1 ([3]; set-9: control 2 after extraction, both bacterial strains): 8-10%
- ABE [4, 16]: 13.15 ± 0.3 g/L
- Butanol [4, 16]: 9.58 ± 0.2 g/L
- ABE [4, 17]: 11.48 ± 0.4 g/L
- Butanol [4, 17]: 8.62 ± 0.3 g/L
- ABE [4, 18]: 11.0 ± 0.3 g/L
- Butanol [4, 18]: 8.4 ± 0.2 g/L
